Source: patent US11008551B2, “Method to increase the infectivity of virus particles” (The Trustees of Princeton University, priority 2011, dated 2021)

Legend:
[1] = test system: HCMV strain AD169 virions; test: Virus cholesterol content after MCβD and/or cholesterol treatment, amplex red assay; set-up: species or system human cytomegalovirus (HCMV)
Method: (§1) Gradient purified HCMV strain AD169 virions were either mock treated or treated with increasing concentrations of MCβD for 30 min at 37° C. MCβD (50 mM) treated virus was incubated in varying concentrations of cholesterol for 30 min at 37° C. Virus (no MCβD treatment) was incubated in varying concentrations of cholesterol for 30 min at 37° C. In all experiments, infectivity (FIG. 5, left panels) and cholesterol content (FIG. 5, right panels) were determined for the treated samples. Infectivity of untreated virus was set to 100%. Virus cholesterol content was determined using the amplexred (Invitrogen) specrofluorometric assay.
To confirm that MCβD treatment depleted virus of envelope cholesterol, the cholesterol content of MCβD-depleted virus was determined (FIG. 5A, right).
(§2) To determine whether the effect of MCβD could be rescued (and is thus reversible), and moreover, to determine if the loss of infectivity was due to cholesterol depletion, exogenous cholesterol was used to replenish the envelopes of MCβD-treated virions by incubating the virus particles with various amounts of free cholesterol.
(§3) To determine if virus infectivity could be increased by increasing virion cholesterol content alone, gradient purified HCMV virions were incubated with increasing concentrations of cholesterol then gradient purified for a second time.

HCMV strain AD169 = test: Acid bypass assay of MCβD-treated virus, IE1 expression at 24 hpi; format: cell-based, human cytomegalovirus (HCMV); settings: MCβD 50 mM, 3 pfu/cell, pH 4.7 vs 7.4, 24 hpi
Method: It is known that infection of host cells by enveloped viruses relies on the fusion of the viral envelope with either an endosomal membrane or the plasma membrane of the cell. Therefore, experiments were designed to test whether infectivity of MCβD-treated virus can be restored by using an “acid bypass assay” (Mercer and Helenius 2008) to circumvent the normal membrane fusion process during virus entry.
Cells were infected with MCβD (50 mM)-treated or mock-treated HCMV strain AD169 at a multiplicity of 3 pfu/cell, allowed to sit at 4° C. for 30 min to allow virus binding, then treated with buffer at a neutral (7.4) or acidic (4.7) pH for 3 min, washed with PBS, and examined for IE1 expression 24 hours later.
HCMV particles, either treated with MCβD or left untreated, were bound to cells at 4° C., then incubated in a low pH buffer (pH 4.7) to artificially induce the fusion event, thus allowing fusion-deficient viruses to enter the cell and replicate. A neutral pH buffer was used as a control. Virus replication after acid bypass was visualized by IE1 expression at 24 hpi (FIG. 6).

[2] = test system: HCMV strain AD169 virions; test: Infectivity of gradient purified virions treated with MCβD and/or cholesterol; format: cell-based, human cytomegalovirus (HCMV)
Method: Due to the ability to sequester cholesterol in its hydrophobic pocket, methyl-ß-cyclodextrin (MCβD) removes cholesterol from membranes (Christian, Haynes et al. 1997). Thus, in order to directly test the role of virion envelope cholesterol in HCMV infection, purified virions were treated with various concentrations of MCβD to deplete cholesterol.
as §1, §2, §3

HCMV [3] = test: Cholesterol supplementation of serum-starved antibody-treated MRC5 cells, cell-free virus by TCID50; format: cell-based, human cytomegalovirus (HCMV); settings: serum-starved MRC5 cells also treated with LRP1-specific antibody, 0.1 PFU/cell, 96 hpi
Method: (§4) In a second experiment, cells were serum starved for 48 hours then treated with indicated antibodies. 1 hour post antibody treatment, serum-starved, confluent MRC5 cells were treated with various concentrations of cholesterol (+fatty acid-free BSA carrier) for 1 hour then infected at a multiplicity of 0.1 PFU/cell. At 96 hpi, released virus was used to infect new cells. “N” indicates no added cholesterol. Cell-free virus was quantified by a TCID50 assay. Data represents the mean and standard deviation from three independent experiments with three replicates each.

HCMV [4] = test: Mevastatin treatment of infected MRC5 cells, released virus quantified by TCID50; format: cell-based, human cytomegalovirus (HCMV)
Method: In a first experiment, MRC5 cells were left untreated, treated with Mevastatin or mock treated. At 90 minutes post Mevastatin treatment, cells were treated with antibody to LRP1 or tubulin or left untreated. 1 hour post Mevastatin treatment, cells were infected at a multiplicity of 0.1 PFU/cell. At 96 hpi, released virus was used to infect new cells.
as §4

[5] = virions treated with increasing MCβD, 30 min at 37° C.
[6] = MCβD (50 mM) treated virus incubated with varying cholesterol, 30 min at 37° C.
[7] = virus without MCβD treatment incubated with increasing cholesterol

Molecule: methyl-ß-cyclodextrin [MCβD]
- depletion of virion cholesterol ([1]; 50 mM MCβD): 90%
- virus cholesterol content [1, 5]: dose-dependent decrease
- ability of treated virus to enter the cell and express IE1 protein after acid bypass (HCMV strain AD169): dramatic difference
- HCMV infectivity [2, 5]: dose-dependent inhibition

Molecule: CC(C)CCC[C@@H](C)[C@H]1CC[C@H]2[C@@H]3CC=C4C[C@@H](O)CC[C@]4(C)[C@H]3CC[C@]12C [cholesterol]
- envelope cholesterol content of MCβD-treated virions [1, 6]: partially restored
- overall cholesterol content of virus [1, 7]: increased
- production of HCMV infectivity (HCMV [3]): substantially enhanced
- HCMV infectivity of MCβD-treated virions [2, 6]: partially restored
- virus infectivity [2, 7]: increased

Molecule: CC[C@H](C)C(=O)O[C@H]1CCC=C2C=C[C@H](C)[C@H](CC[C@@H]3C[C@@H](O)CC(=O)O3)[C@H]21 [Mevastatin]
- reversal of the increased infectivity caused by inhibition of LRP1 activity (HCMV [4]; MRC5 cells also treated with LRP1 antibody): to a limited extent
- production of infectivity (HCMV [4]; MRC5 cells, 0.1 PFU/cell, 96 hpi, Mevastatin): inhibited the production of infectivity in a dose-dependent manner
